Each structure is given as a SMILES string.

Experimental findings from patent publication US8247377B2, “Non-steroidal glucocorticoid inhibitors and their use in treating inflammation, allergy and auto-immune conditions” (Glaxo Group Limited, priority 2006, dated 2012) are described below.

One assay deals with T1, glucocorticoid receptor (Homo sapiens, UniProt P04150).
T1 construct: a partially purified full length glucocorticoid receptor
T1 sequence (P04150 1-777): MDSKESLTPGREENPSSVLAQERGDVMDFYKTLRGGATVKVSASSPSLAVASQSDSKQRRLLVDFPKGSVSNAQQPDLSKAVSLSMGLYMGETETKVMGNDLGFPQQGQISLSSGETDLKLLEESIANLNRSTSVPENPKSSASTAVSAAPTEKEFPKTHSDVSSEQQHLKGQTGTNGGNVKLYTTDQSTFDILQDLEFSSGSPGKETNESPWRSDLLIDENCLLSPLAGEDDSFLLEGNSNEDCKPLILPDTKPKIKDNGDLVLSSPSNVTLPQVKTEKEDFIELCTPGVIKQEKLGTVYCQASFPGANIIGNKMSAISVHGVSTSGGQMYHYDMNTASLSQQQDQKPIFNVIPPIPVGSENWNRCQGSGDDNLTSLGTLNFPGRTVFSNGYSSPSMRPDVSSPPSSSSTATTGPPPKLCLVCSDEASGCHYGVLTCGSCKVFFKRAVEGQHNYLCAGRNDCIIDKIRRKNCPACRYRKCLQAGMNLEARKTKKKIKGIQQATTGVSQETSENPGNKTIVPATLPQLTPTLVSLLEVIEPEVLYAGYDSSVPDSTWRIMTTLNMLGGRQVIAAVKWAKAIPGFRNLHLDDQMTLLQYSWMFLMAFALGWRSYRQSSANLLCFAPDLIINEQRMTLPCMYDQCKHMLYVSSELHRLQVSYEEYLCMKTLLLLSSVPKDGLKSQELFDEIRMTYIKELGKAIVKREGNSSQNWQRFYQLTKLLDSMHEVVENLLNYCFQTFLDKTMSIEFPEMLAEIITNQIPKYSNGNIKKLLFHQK
The experiment in a line: Glucocorticoid receptor binding assay (fluorescence polarisation). The note with it: competition with Alexa 555 fluorescently-labelled dexamethasone derivative, full length glucocorticoid receptor; read-out: glucocorticoid binding pIC50 (converted). As to the method: Compounds were solvated and diluted in DMSO, and transferred directly into assay plates. Fluorescent dexamethasone and a partially purified full length glucocorticoid receptor were added to the plates, together with buffer components to stabilise the GR protein and incubated at room temperature for 2 hrs in the dark. Binding of each compound was assessed by analysing the displacement of fluorescent ligand by measuring the decrease in fluorescence polarisation signal from the mixture. Dose response curves were constructed from which pIC50 values were estimated.

The subject of the next assay is MMTV promoter. The experiment in a line: MMTV agonist assay in A549 MMTV cells. The format is cell-based. Particulars: Homo sapiens, A549, 6 h, >85% = full agonist, >20% and <85% = partial or efficacy selective agonist, read-out: average maximum asymptote in the MMTV agonist assay. The source says: (§1) Human lung carcinoma A549 cell line (ECACC No. 86012804) has been stably transfected in house with a plasmid containing a renilla luciferase reporter with an MMTV promoter. Stimulation of the cell line with GR agonists results in intracellular signal transduction and ultimately translocation of GR into the nucleus. This activates the inserted DNA sequence resulting in transcription of the integrated luciferase gene, which is quantified using a light emission. The stably transfected cell line was grown as a monolayer in DMEM supplemented with FCS-HI (10%), Non-essential amino acids (1%), L-Glutamine (2 mM), Pen/Strep (1%) and Geneticin (50 mg/ml).
A 90% confluent T175 flask of A549 MMTV cells was harvested by centrifugation for 5 min at 200 g, resuspended in assay buffer (DMEM supplemented with 10% FCS 2×HI, 2 mM Glutamax, Non essential amino acids and 25 mM HEPES) and diluted to 0.1×10^6/ml. 70 μl of cell solution was dispensed to each well of white Nunc 384-well plates, containing compound at the required concentration. Plates were incubated for 6 h at 37° C., 95% humidity, 5% CO2. Plates were equilibrated to room temperature for 1 h prior to the addition of 10 μl of Renilla substrate to each well of assay plates. The plates were covered to protect the reagents from light, and then incubated at room temperature for approximately 15 mins before reading them on a Viewlux. Dose response curves were constructed from which pEC50 and maximum asymptote values were estimated.

The next assay relates to NFκB. Put plainly: NFκB agonist assay in A549 SPAP cells.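 As to average maximum asymptote in the NFkB assay: maximum inhibition of the TNFα-induced NFκB-driven signal.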 Type of assay: cell-based. Particulars: Homo sapiens; for Emax: A549, A549 SPAP cells, >85% = full agonist, ≧20% = partial or full agonist, read-out: average maximum asymptote in the NFkB assay; for IC50: A549 SPAP cells, TNFα 3.2 ng/ml, read-out: pIC50 for the NFkB assay (converted).
Excerpt: as §1, with “containing an ELAM promoter sequence that has” for “containing”, “NFκB response element within it.” for “renilla luciferase reporter with an MMTV promoter.”, “TNFα” for “GR agonists”, “NFκB” for “GR”, “SPAP” for “luciferase”, “colorimetric assay. […]” for “light emission.”
A 70% confluent T225 flask of A549 SPAP cells was harvested by centrifugation for 5 min at 200 g, resuspended in assay buffer (DMEM supplemented with 10% FCS 2×HI, 2 mM L-Glutamine, 1% Pen/Strep and Non essential amino acids) and diluted to 0.16×10^6/ml. 60 μl of cell solution was dispensed to each well of clear Nunc 384-well plates, containing compound at the required concentration. Plates were incubated for 1 h at 37° C., 95% humidity, 5% CO2 before 10 μl of TNFα was added at final concentration of 3.2 ng/ml and then returned to the cell incubator for 15 h. Plates were equilibrated to room temperature for 1 h prior to the addition of 25 μl of pNPP buffer (1M Diethanolamine pH 9.8, 0.5 mM MgCl2, 0.28M NaCl, 2 mg/ml pNPP) to each well of assay plates. The plates were covered to protect the reagents from light, and then incubated at room temperature for approximately 1 hour before reading them on an Ascent using a 405 nm single filter. Dose response curves were constructed from which pIC50 values were estimated.

For the next assay, the target named is T2, progesterone receptor (Homo sapiens, UniProt P06401).
T2 construct: expressed in transfected cells; host or cells: CV-1 cells transduced with PRb-BacMam and MMTV-BacMam
T2 sequence (P06401 1-933): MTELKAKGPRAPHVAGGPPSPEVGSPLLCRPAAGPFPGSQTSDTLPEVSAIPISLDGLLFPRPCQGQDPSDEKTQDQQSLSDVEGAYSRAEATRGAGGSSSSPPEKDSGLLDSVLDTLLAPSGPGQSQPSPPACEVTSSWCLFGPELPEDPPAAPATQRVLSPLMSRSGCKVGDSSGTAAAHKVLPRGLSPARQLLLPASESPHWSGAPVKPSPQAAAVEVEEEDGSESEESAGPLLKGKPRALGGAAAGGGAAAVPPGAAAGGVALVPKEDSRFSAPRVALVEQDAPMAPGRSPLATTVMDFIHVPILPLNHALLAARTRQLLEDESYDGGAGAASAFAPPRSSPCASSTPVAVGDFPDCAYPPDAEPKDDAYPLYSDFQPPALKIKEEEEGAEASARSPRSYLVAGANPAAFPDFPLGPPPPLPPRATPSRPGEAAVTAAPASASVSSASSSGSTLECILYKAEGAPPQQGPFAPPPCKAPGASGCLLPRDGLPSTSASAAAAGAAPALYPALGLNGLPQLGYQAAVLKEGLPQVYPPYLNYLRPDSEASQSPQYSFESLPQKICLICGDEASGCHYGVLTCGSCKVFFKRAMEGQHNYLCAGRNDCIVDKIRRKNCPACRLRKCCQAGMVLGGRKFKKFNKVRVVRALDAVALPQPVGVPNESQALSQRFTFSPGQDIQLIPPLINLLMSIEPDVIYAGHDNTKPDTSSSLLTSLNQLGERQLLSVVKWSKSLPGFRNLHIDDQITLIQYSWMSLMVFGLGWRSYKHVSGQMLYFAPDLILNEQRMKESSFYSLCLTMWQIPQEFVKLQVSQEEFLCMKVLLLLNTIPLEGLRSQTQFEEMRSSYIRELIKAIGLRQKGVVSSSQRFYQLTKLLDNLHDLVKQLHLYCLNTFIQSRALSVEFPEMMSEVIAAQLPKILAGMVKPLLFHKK
The experiment in a line: Assay for progesterone receptor activity (CV-1 cells, PRb-BacMam/MMTV-BacMam). The format is cell-based. The note with it: CV-1 cells transduced with PRb-BacMam and MMTV-BacMam; read-out: pEC50 progesterone receptor activity (converted). The method, then:
A T225 flask of CV-1 cells at a density of 80% confluency was washed with PBS, detached from the flask using 0.25% trypsin and counted using a Sysmex KX-21N. Cells were diluted in DMEM containing 10% Hyclone, 2 mM L-Glutamate and 1% Pen/Strep at 140 cells/μl and transduced with 10% PRb-BacMam and 10% MMTV-BacMam. […] of suspension cells were dispensed to each well of white Nunc 384-well plates, containing compounds at the required concentration. After 24 h 10 μl of Steadylite were added to each well of the plates. Plates were incubated in the dark for 10 min before reading them on a Viewlux reader. Dose response curves were constructed from which pEC50 values were estimated.

For `Nc1c(C(=O)NCC(O)(CN(CCF)C(=O)c2c(F)cccc2Cl)C(F)(F)F)cnn1-c1ccc(F)cc1` (racemic) [Example 29 (racemic), 5-amino-N-(2-{[[(2-chloro-6-fluorophenyl)carbonyl](2-fluoroethyl)amino]methyl}-3,3,3-trifluoro-2-hydroxypropyl)-1-(4-fluorophenyl)-1H-pyrazole-4-carboxamide], the IC50 was at most 316 nM at glucocorticoid receptor and under 1000 nM in the assay with NFκB. The Emax with MMTV promoter and in the assay on NFκB was over 85% each time.
For `CCN(CC(O)(CNC(=O)c1cnn(-c2ccccc2Cl)c1N)C(F)(F)F)C(=O)c1c(F)cccc1F` (racemic) [Example 40 (racemic), 5-amino-1-(2-chlorophenyl)-N-(2-{[[(2,6-difluorophenyl)carbonyl](ethyl)amino]methyl}-3,3,3-trifluoro-2-hydroxypropyl)-1H-pyrazole-4-carboxamide], the IC50 on glucocorticoid receptor is at most 316 nM; in the assay on NFκB, under 1000 nM. Also, the Emax in the assay with MMTV promoter and in the assay with NFκB was over 85% throughout.
Turning to `Nc1c(C(=O)NCC(O)(CNC(=O)c2c(Cl)cccc2C(F)(F)F)C(F)(F)F)cnn1-c1ccc(F)cc1` (racemic) [Example 44 (racemic), 5-Amino-N-{2-[({[2-chloro-6-(trifluoromethyl)phenyl]carbonyl}amino)methyl]-3,3,3-trifluoro-2-hydroxypropyl}-1-(4-fluorophenyl)-1H-pyrazole-4-carboxamide], the IC50 was at most 316 nM on glucocorticoid receptor and under 1000 nM in the assay on NFκB. Also, the Emax was 20 to 85% in the assay with MMTV promoter and at least 20% in the assay on NFκB.
On to `Nc1c(C(=O)NCC(O)(CNC(=O)c2c(F)cccc2Cl)C(F)(F)F)cnn1-c1ccc(F)cc1` (single isomer, unassigned) [Example 7 Enantiomer 2, 5-Amino-N-[2-({[(2-chloro-6-fluorophenyl)carbonyl]amino}methyl)-3,3,3-trifluoro-2-hydroxypropyl]-1-(4-fluorophenyl)-1H-pyrazole-4-carboxamide], for which the Emax in the assay on MMTV promoter is 20 to 85%; in the assay with NFκB, at least 20%.
Consider `Nc1c(C(=O)NCC(O)(CNC(=O)c2c(C(F)(F)F)cccc2C(F)(F)F)C(F)(F)F)cnn1-c1ccc(F)cc1` (single isomer, unassigned) [Example 15 Enantiomer 1, 5-amino-N-{2-[({[2,6-bis(trifluoromethyl)phenyl]carbonyl}amino)methyl]-3,3,3-trifluoro-2-hydroxypropyl}-1-(4-fluorophenyl)-1H-pyrazole-4-carboxamide], for which the IC50 at glucocorticoid receptor is at most 316 nM. Moreover, the figures for the Emax in the assay on MMTV promoter and in the assay on NFκB were 20 to 85% and at least 20%, respectively. Besides, the EC50 on progesterone receptor is over 1000 nM.
Regarding `Nc1c(C(=O)NCC(O)(CNC(=O)c2c(F)cccc2C(F)(F)F)C(F)(F)F)cnn1-c1ccc(F)cc1` (single isomer, unassigned) [Example 19 Enantiomer 1, 5-amino-1-(4-fluorophenyl)-N-{3,3,3-trifluoro-2-[({[2-fluoro-6-(trifluoromethyl)phenyl]carbonyl}amino)methyl]-2-hydroxypropyl}-1H-pyrazole-4-carboxamide], the IC50 on glucocorticoid receptor is at most 316 nM; in the assay on NFκB it was under 1000 nM. Also, the Emax was 20 to 85% in the assay on MMTV promoter and at least 20% with NFκB.
